# Test results published in paper PMC9774438, “Effects of Synthetic Short Cationic Antimicrobial Peptides on the Catalytic Activity of Myeloperoxidase, Reducing Its Oxidative Capacity” (Antioxidants, 2022).
# Entries after “also recorded” stand apart in the source; their conditions may differ.
# What was measured:
# Assay type in all cases: biochemical
# [1] = molecular target: T1, myeloperoxidase (MPO) (Homo sapiens, UniProt P05164); assay: MPO peroxidase activity (Amplex Red assay); details: 0.8–50 μM peptide, 8 nM MPO heme, 50 μM Amplex Red, 25 μM H2O2, 50 mM K-phosphate pH 7.4
# T1 construct: Native myeloperoxidase (MPO) was obtained from human leukocyte extract by successive chromatography on heparin-Sepharose and phenyl-agarose; from tissue; host or cells: human leukocyte extract
# T1 sequence (P05164 279-745 limits assumed): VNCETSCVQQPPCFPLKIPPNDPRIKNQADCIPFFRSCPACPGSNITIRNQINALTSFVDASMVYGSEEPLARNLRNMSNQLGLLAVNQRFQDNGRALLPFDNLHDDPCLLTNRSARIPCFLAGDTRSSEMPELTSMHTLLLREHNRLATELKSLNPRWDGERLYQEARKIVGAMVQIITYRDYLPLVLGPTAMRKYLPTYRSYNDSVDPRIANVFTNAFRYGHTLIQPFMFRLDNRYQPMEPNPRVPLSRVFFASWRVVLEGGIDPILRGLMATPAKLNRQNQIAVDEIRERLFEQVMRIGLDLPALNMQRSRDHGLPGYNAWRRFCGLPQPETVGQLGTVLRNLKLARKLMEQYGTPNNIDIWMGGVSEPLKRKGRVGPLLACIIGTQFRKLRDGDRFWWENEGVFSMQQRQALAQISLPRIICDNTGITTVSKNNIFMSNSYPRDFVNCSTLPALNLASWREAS
# T1 sequence (P05164 165-273 limits assumed): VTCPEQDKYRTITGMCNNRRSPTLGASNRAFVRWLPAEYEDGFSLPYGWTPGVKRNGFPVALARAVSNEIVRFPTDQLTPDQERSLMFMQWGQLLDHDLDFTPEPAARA
# Description: MPO peroxidase activity was evaluated fluorometrically using Amplex Red^TM reagent which was oxidized by MPO to the fluorescent resorufin (λex = 530 nm, λem = 590 nm). The assay was performed in 96-plate format. The final reaction mixture in 50 mM K-phosphate buffer (pH 7.4) was as follows: MPO, 8 nM heme; peptide, […]; H2O2, 25 μM; Amplex Red reagent, 50 μM. MPO was preincubated with peptides for 5 min in a volume of 100 μl. Then, Amplex Red was added, and the enzymatic reaction was initiated by adding H2O2 (a final probe volume of 200 μL per well). The fluorescence measurement was made with a CLARIOstar multimodal plate reader (BMG Labtech, Ortenberg, Germany) at 5 min after the beginning of the reaction. To determine the type of CAMP-induced inhibition, KM and Vmax were obtained by varying substrates of MPO: Amplex Red in a final concentration from 1 to 62.5 μM, or H2O2 in a final concentration from 0.625 to 20 μM.
# (§1) The Hannes-Wolf plots were made as ([Substrate]/V = f([Substrate]). KM was equal in magnitude to the intercept made on the abscissa axis by the approximating straight line; Vmax was calculated as a reciprocal value of the straight-line slope. The inhibition constant (Ki) for noncompetitive inhibition was calculated as follows: Ki = [I]/((Vmax − Vmax’)/Vmax’); Ki for competitive inhibition was calculated as follows: Ki = [I]/((KM’ − KM)/KM); Ki for mixed inhibition was calculated as follows: Ki = [I]/(((KM’ − KM)/KM)^2 + ((Vmax − Vmax’)/Vmax’))^2)^0.5; and Ki for uncompetitive inhibition was calculated as follows: Ki = [I]/(((KM − KM’)/KM’)^2 + ((Vmax – Vmax’)/Vmax’))^2)^0.5, where [I]—concentration of inhibitor (CAMP), KM—Michaelis constant without inhibitor, Vmax—maximal rate without inhibitor, KM’—Michaelis constant in the presence of inhibitor, Vmax’—maximal rate in the presence of inhibitor.
# From the experiments with varying concentrations of H2O2 (0.01–200 μM) and Amplex Red (6.25–100 μM), the optimal concentrations of 25 μM H2O2 and 50 μM Amplex Red were chosen for further work. The 0.8–50 μM concentration range (corresponding to 100–6250 peptide molecules per heme) was used to determine the concentration dependence of the effect of CAMPs on peroxidase activity of MPO.
# [2] = molecular target: T1, myeloperoxidase (MPO); assay: MPO chlorinating activity (Celestine Blue B assay); details: 0.008–8 μM peptide, 0.8 nM MPO heme, 200 μM CB, 150 mM NaCl, 50 μM H2O2, 50 mM Na-acetate pH 5.5
# Description: MPO chlorinating activity was evaluated fluorometrically using Celestine Blue B (CB) which was oxidized to fluorescent glycol (λex = 487 nm, λem = 578 nm) by taurine N-chloramine produced in the reaction of taurine with HOCl generated by MPO [39]. The assay was performed in 96-plate format. MPO was preincubated with peptides for 5 min in a volume of 100 μL, with the concentrations being: MPO, 1.6 nM heme and peptide, 16 nM–16 μM. Then, 100 μL aliquots of CB-containing mix (CB, 400 µM; H2O2, 100 µM; taurine, 4 mM; KI, 10 µM; NaCl, 300 mM; 50 mM Na-acetate buffer, pH 5.5) were added to MPO/peptide and to 100 μL of HOCl standards (0–150 μM). The fluorescence measurement was made with a CLARIOstar multimodal plate reader (BMG Labtech, Ortenberg, Germany) at 15 min after the reaction started. Fluorescence intensity detected for HOCl standards of HOCl was used for calculating the chlorinating activity as mole of HOCl per mole of MPO heme per second. To determine the type of CAMP-induced inhibition, KM and Vmax were obtained by varying substrates of MPO: NaCl in a final concentration from 25 to 300 mM, or H2O2 in a final concentration from 5 to 80 µM.
# as §1
# Chlorinating activity is a distinctive feature of MPO as compared with other peroxidases and it is an important property, enabling MPO to combat microbes. We tested whether the inhibitory effects of pept_1545 and Hm-AMP8 on peroxidase activity extend to MPO chlorinating activity. Chlorinating activity was measured using a fluorometric CB-based assay. To determine the concentration dependence of the effect of CAMPs on MPO chlorinating activity, the 0.008–8 μM concentration range (corresponding to 10–10,000 peptide molecules per heme) was used.
# [3] = molecular target: T1, myeloperoxidase (MPO); assay: Dityrosine fluorescence detection during MPO/H2O2 reaction; details: 40 μM peptide, 0.4 μM MPO heme, 50 μM H2O2, 10 mM Na-phosphate pH 7.4, 0.2 mM DTPA, λex 315 nm
# Description: Formation of dityrosine during the MPO reaction with CAMPs was monitored by fluorescence on a CM 2203 spectrofluorometer (Minsk, Belarus) with an excitation wavelength of 315 nm. Emission spectra were recorded between 350 nm and 500 nm, with the maximum being at 405–410 nm. MPO (0.4 μM) in a 1 mL cuvette was mixed with CAMP (40 μM) at pH 7.4 in 10 mM Na-phosphate buffer supplemented with 0.2 mM DTPA, and the starting emission spectrum was recorded. Succeeding spectra were taken at time intervals following the addition of 50 μM H2O2 to the continuously stirred reaction mixture.
# Since dityrosine is an intensely fluorescent compound, the fluorescence method can be applied to detect its formation. MPO (0.4 µM heme) and tyrosine-containing Hm-AMP2 (40 µM) or HM-AMP8 (40 µM) were mixed in a cuvette in 10 mM Na-phosphate buffer, pH 7.4. No emission peak characteristic of dityrosine was observed. Succeeding spectra were recorded at time intervals after H2O2 (50 µM) addition. Dityrosine formation was monitored by the increase in fluorescence intensity.
sequence,measurement,setting,value
"EKRWRRLIFNYF [Hm-AMP2, synthetic cationic antimicrobial peptide …]",effect on MPO peroxidase activity,[1],no inhibition; also recorded: No effect
same,effect on MPO chlorinating activity,[2],no significant effect
same,dityrosine formation (fluorescence),[3],time-dependent generation of dityrosine; also recorded: diY formation
